Laboratory results taken from US11903925B2, “Compositions for preventing and treating pulmonary injury due to ionizing radiation or cytotoxic drugs” (RepoCeuticals A/S, priority 2015, dated 2024).

Assays:
[1] = Stability (suitability for use in a pharmaceutical composition); settings: hence unsuitable for use in a pharmaceutical composition
[2] = Solubility of melatonin in water / aqueous solution; type: physicochemical; settings: straightforward attempts at dissolving melatonin in water
Description: The pharmaceutical composition of the present invention may be in the form of a powder, solution, emulsion, suspension, or micellar, microsphere, microcapsular, nanoparticulate or liposomal preparation. Melatonin and most of its analogues, derivatives and metabolites are only sparingly soluble in water, straightforward attempts at dissolving melatonin in water yielding a maximum melatonin concentration of only 0.1 mg/mL. Higher concentrations of melatonin are needed if aqueous preparations of melatonin are to be administered in a convenient manner, e.g. by the inhalation of an aerosol of the preparation, to the airways epithelium at the concentrations estimated to be necessary to exert a protective action against free radical damage. A method of achieving this is outlined below.
A further formulation is to supply the composition as a dry powder as described above in a capped vial, to be reconstituted as a solution for nebulization by adding a given volume of sterile water from a second vial, to be used within one hour. The water for dissolving the formulation may contain the empirically determined amount of salts and buffering ions to produce a solution of the composition that has a near-physiological pH and osmolarity with reference to plasma to avoid the provocation of cough and bronchoconstriction on inhalation. […]

lung = settings: use of cytotoxic chemotherapeutic agents for cancer; cited from earlier work

Compound: COc1ccc(N)c(C(=O)CCNC(C)=O)c1 [N^1-acetyl-5-methoxykynuramine]
- stability [1]: unstable

Compound: COc1ccc2[nH]cc(CCNC(C)=O)c2c1 [melatonin, N-acetyl-5-methoxytryptamine]
- maximum melatonin concentration in water [2]: 0.1 mg/mL

Compound: Bleomycin
- overall rate of pulmonary damage (lung): over 40%
